Consider 1 substance from PMC11169542, “A probe for NIR-II imaging and multimodal analysis of early Alzheimer’s disease by targeting CTGF” (Nature Communications, 2024).

Series [1] relates to CTGF. In words: DGC labelling of CTGF in cells by fluorescence imaging (CLSM). Conditions: for FL Intensity of DGC per cell: 55 μM DGC 60 min, CLSM. Format: cell-based. The protocol: The U87MG, SH-SY5Y, and CTX TNA2 cells in confocal dishes were fixed with 4% paraformaldehyde solution (PFA) for 30 min. Next, the cells were washed with cold PBS three times, and 3% BSA in PBS solution was introduced to the cells to block the nonspecific recognition sites. Then, the cells were incubated with 55 μM DGC for 60 min at room temperature. The control cells were only incubated with a culture medium. Next, the nuclei were stained with 5 μg/mL DAPI solution for 5 min. Finally, the cells were observed by a confocal laser scanning microscope (CLSM, PerkinElmer, USA). The fluorescence intensity of each cell was measured by ImageJ software, the red channel was extracted by clicking Split Channels, and the red fluorescent region, except the nucleus was selected by Freehand selections. Then the average fluorescence intensity in this region was measured and recorded for statistical analysis.
To further determine the specificity of DGC to CTGF, immunofluorescence staining was performed with CTGF antibodies to determine the location of CTGF in cells. First, U87MG cells in confocal dishes were fixed with 4% PFA for 30 min. Next, the cells were washed with PBS three times, and 3% bovine serum albumin (BSA) in PBS solution. Then, the cells were incubated with CTGF antibody (dilution 1:100, Abcam, Cat#ab6992) in PBS for 4 h at 4 °C, and FITC-labeled Goat Anti-Rabbit IgG (H + L) (1: dilution 1:200, Bioss, Cat#bs-0370R-FITC) in 3% BSA solution was added to the cells for another 30 min at 37 °C in the dark. Subsequently, 55 μM DGC were incubated with the cells for 1 h. Finally, the cells were stained with DAPI for 5 min and washed with PBS before the CLSM image (Nikon).
Moreover, a binding site blocking study was performed to confirm the specificity of the DGC to CTGF. First, U87MG cells were fixed with 4% PFA. Then, a PBS solution containing 3% BSA was used to block the nonspecific recognition sites for 30 min. After BSA blocking, the cells were pre-incubated with 5 mM of free DAG peptide for 1 h, followed by 55 μM DGC added for 60 min. Then, DAPI (5 μg/mL) was added to U87MG cells to stain the nuclei. Finally, the cells were imaged by the CLSM system.

For series [2], the system named is CTGF. In words: Chromogenic DAB oxidation in DGC-labelled cells. Conditions: 40 μM DGC 4 °C overnight + DAB, Image Pro Plus. Format: cell-based. The protocol:
To observe accurately the expression level of CTGF in cells with the naked eye, we optimized the conditions for labeling U87MG, SH-SY5Y, and CTX TNA2 cells stained with DGC. According to the study, the optimal incubation concentration of DGC (40 μM) was used to determine the optimal culture conditions using the DAB Horseradish Peroxidase Color Development Kit. After the cells were co-stained by DGC at 4 °C overnight, a DAB chromogenic agent was added to the cells. Since DGC can label CTGF proteins on the cells, when DAB chromogenic is added, DGC on the cells can catalyze DAB to produce an insoluble brown precipitate to attach to the cells.

A short description of series [3]: Biodistribution of DGC in organs by ex vivo NIR-II imaging. Details: species or system APP/PS1 and wild-type mice. The conditions noted are these: ex vivo NIR-II observation of major organs. The protocol: Mice were then perfused intracardially with saline and 4% PFA, and major organs (including the brain, heart, liver, spleen, lung, and kidney were isolated. The dissociated brains were performed NIR-II imaging ex vivo using the same method as in vivo imaging (n = 3). All isolated organs were also imaged by the NIR-II imaging system (λ ex = 808 nm, 1000 nm longpass (LP) filter (Edmund Optics)). And then, the brains were kept in 4% PFA overnight and embedded with paraffin. Sections with 5-μm thickness were cut and analyzed by immunostaining with antibodies to CTGF (dilution 1: 50, Abcam, Cat#ab6992), GFAP (dilution 1:100, Proteintech, Cat#16825-1-AP), CD31 (dilution 1:200, Beyotime, Cat#AF6408), Neun (dilution 1:300, abcam, Cat# ab177487), and Iba 1 (dilution 1:50, Beyotime, Cat# AF7143), respectively.

For series [4], the target named is T1, CTGF (Homo sapiens, UniProt P29279).
T1 sequence (P29279 27-349): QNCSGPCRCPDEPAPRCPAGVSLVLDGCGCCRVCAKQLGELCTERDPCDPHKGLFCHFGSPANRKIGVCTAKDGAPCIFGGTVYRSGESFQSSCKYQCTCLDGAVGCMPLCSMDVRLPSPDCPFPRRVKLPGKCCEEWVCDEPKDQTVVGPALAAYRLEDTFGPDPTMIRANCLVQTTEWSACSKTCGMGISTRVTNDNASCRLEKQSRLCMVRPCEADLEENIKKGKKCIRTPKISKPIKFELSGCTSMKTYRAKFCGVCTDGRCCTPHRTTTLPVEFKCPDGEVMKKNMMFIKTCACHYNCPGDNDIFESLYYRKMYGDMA
Kind of series: Affinity between DGC/DAG and CTGF protein by SPR (BIAcore). Format: binding. On the set-up: purchased Abcam ab283457. Conditions: ratio of SPR KD values. Here is the method:
Real-time binding and kinetic analyses by surface plasmon resonance (SPR) were performed on a BIAcore 8 K^+ instrument (Pharmacia Biosensor AB). The recombinant Human CTGF protein (Abcam, Cat#ab283457) was immobilized on a CM5 chip by using an amine coupling kit, and the remaining coupling sites were blocked with ethanolamine. The eluent contained PBS and 0.005% Tween 20. Binding was evaluated over a range of DAG (0.5–16 μM) or DGC (0.01– 0.16 μM) concentrations at 25 °C. Kinetic parameters were further determined with Biacore Insight Evaluation 3.0 software.
Background: Surface plasmon resonance follows binding to a sensor surface in real time, without labels.

Ends that are not written are not given here.

“DGC: CTGF-targeting peptide-coated gold nanocluster: one Au26 gold nanocluster coated by eight DAG cyclic peptides, NIR-II and red fluorescence (CDAGRKQKC; also: cyclic peptide, ring not given here, eight peptides on one Au26 nanocluster via Cys Au-S bonds)”: the “labelling of CTGF after blocking with free DAG peptide” value in series [1] (U87MG cells pre-incubated with 5 mM free DAG 1 h, then 55 μM DGC 60 min) is reported as “cannot label CTGF in cells pre-blocked by free DAG peptides”. For the same substance, in series [1] (U87MG cells, ImageJ), the “co-localization coefficient (Pearson's correlation coefficient) of DGC and CTGF antibody” value was determined as 0.946. For the same substance, the “FL Intensity of DGC per cell” value in series [1] (fixed CTX TNA2 cells, replicate 1) worked out at 5.779; in series [1] (fixed CTX TNA2 cells, replicate 2), 3.821; in series [1] (fixed CTX TNA2 cells, replicate 3), 8.33; in series [1] (fixed SH-SY5Y cells, replicate 1) it was 14.6594; in series [1] (fixed SH-SY5Y cells, replicate 2), 16.8684; in series [1] (fixed SH-SY5Y cells, replicate 3), 12.4094. Also, the “FL Intensity of DGC per cell” value in series [1] (fixed U87MG cells, replicate 1) was found to be 36.9955; in series [1] (fixed U87MG cells, replicate 2), 33.5045; in series [1] (fixed U87MG cells, replicate 3), 35.4955. The “DAB chromogenic imaging intensity” value in series [2] (CTX TNA2 cells, replicate 1) came to 0.0128; in series [2] (CTX TNA2 cells, replicate 2) it was 0.01748; in series [2] (CTX TNA2 cells, replicate 3), 0.0191; in series [2] (SH-SY5Y cells, replicate 1), 0.04369; in series [2] (SH-SY5Y cells, replicate 2), 0.03714; in series [2] (SH-SY5Y cells, replicate 3) it was 0.0465. The “DAB chromogenic imaging intensity” value in series [2] (U87MG cells, replicate 1) was found to be 0.1444; in series [2] (U87MG cells, replicate 2), 0.1042; in series [2] (U87MG cells, replicate 3), 0.1075. Moreover, in series [3], the “metabolism and excretion route” value is “mainly metabolized by the liver and excreted through the kidney and liver”. The “binding affinity of DGC to CTGF relative to free DAG peptide” value in series [4] is on record as “more than 1000 times”.
